Laboratory results: patent US20170251655A2, “COMPOSITIONS AND METHODS FOR CAPTURING, KILLING OR REPELLING BED BUGS” (OLFACTOR LABORATORIES, INC., priority 2014, published 2017)
Structures can show the parent of a compound that is named as a salt.

Columns and labels:
bed bugs [1] = test: Bed bug luring assay (baited cup, overnight); format: in vivo; conditions: for Attractant Category: category from attractant activity value; for Att Act (attractant activity value): percentage of 10 bed bugs in baited cup, cottonball with 100 microliters compound or combination solution, overnight, dark
Protocol: Assays were conducted to measure the ability of compounds and compound combinations to attract bed bugs. A testing arena habitat comprising a small plastic container was placed inside of a larger, secondary container. The top half inch was removed from two bathroom sized plastic cups and each cup was placed on opposite sides of the testing arena habitat, one inch away from the wall. Each outer part of the cup was textured using sandpaper, as bed bugs cannot climb smooth surfaces. A paper towel was used to line the floor of the testing arena habitat. The top, removed portion of one of the cups was placed mouth side down in the center of the arena. In one of the cups, a cottonball was placed and treated with 100 microliters of compound or compound combination solution [comprising a total of […] of compound(s).] Ten bed bugs were placed within the center cut off cup top and the testing arena habitat was covered and placed within a dark, climate controlled room overnight.
The next day, the number of bed bugs that crawled into the baited cup were recorded and the attractant activity value was calculated. As used herein, the attractant activity value represents the percentage of bugs that crawled into the baited cup as compared to the total number of bed bugs. In the Table, “Att Act” refers to attract activity value.

[2] = system: bed bug (Cimex lectularius); test: Bed bug threshold assay (mouse bait, treated filter paper on acrylic rod bridges); format: in vivo; conditions: 90 μl isopropyl alcohol + 10 μl testing compound on filter paper; bed bugs crossing treated vs control; mouse as bait; 10 minutes
Protocol: Compounds and blends of the present invention were assayed for their ability to modify bed bug (Cimex lectularius) behavior using a bed bug threshold assay. Three interceptors were laid side by side and acrylic rods were stuck on to the sides with putty so that they went from interceptor to interceptor forming bridges. Paper towels sections of 6 inches by 2 inches were placed so that they hung off of the ends of the acrylic rods to form harborage for bed bugs. Next, 125 mm pieces of Whatman Filter paper treated either with the compound of interest (90 μl isopropyl alcohol+10 μl testing compound) or with control solution of 100 μl isopropyl alcohol were stuck to the top of the acrylic rods with the compound impregnated filter on one rod and control impregnated filter on the other. In the middle interceptor a mouse was placed as bait for the bed bugs. In either outside interceptors 10 bed bugs each were placed in holding dishes, allowed to equilibrate for 10 minutes then released on the harborage. Video footage at 1 second time intervals was obtained for 10 minutes then analyzed for bed bug movements. Repellency of any given compound or blend was calculated by counting how many bed bugs traversed the acrylic rods across either the treated or the control Whatman filter paper. Percent repellency was determined by comparing the number of bed bugs which crossed the treated Whatman filter paper to the number of bed bugs which crossed the control Whatman filter paper.

[3] = system: bed bug (Cimex lectularius); test: Bed bug repellency assay (filter paper harborage, petri dish); format: in vivo; conditions: for % Repellency / Repellency Category: individual compounds; for % Repellency: 10 microliters compound + 90 microliters isopropyl alcohol on filter paper tent, 10 bed bugs, 5 minutes, vs control; for Repellency Category: category from % repellency; for Ind % Rep (percent repellency of the individual compound): values obtained in Example 1 for the individual compound of a blend
Protocol: Compounds and blends of the present invention were assayed for their ability to modify bed bug (Cimex lectularius) behavior using a bed bug repellency assay. This assay takes advantage of the bed bug's natural instinct to seek harborage. Two petri dishes were obtained and the inner areas of each were sanded down (leaving the perimeter smooth.) Talc was applied on the perimeter and on the inside walls of the petri dishes with a small paint brush to prevent bed bugs from escaping. A cut off top portion of a plastic cup was placed upside down in the center of one petri dish to create a holding arena for the bed bugs. A large plastic secondary container was gathered and a paper towel was laid down inside the bottom. The petri dish was then placed inside and ten bed bugs were placed inside the cut off portion of the cup.
Next, two pieces of filter paper were cut down the middle to yield 4 equally sized halves. Three pieces were placed inside a glass dish […] and the remaining piece was placed in a separate dish. All four pieces were folded down the middle to create a “tent” or “harborage” when laid such that the folded crease faced up. 100 microliters of isopropyl alcohol was pipetted into three pieces of filter paper (all housed in the first glass dish.) In a separate 4 ml vial, 90 microliters of isopropyl alcohol was combined and vortexed with 10 microliters of the compound or compound combination being tested. 100 microliters of this solution [comprising a total of […] of compound(s)] was pipetted onto the filter paper in the separate dish. All filter papers were then allowed to dry. Once dry, experiments were conducted first with two filter paper halves comprising only the isopropyl alcohol (control experiment) and then with the remaining filter paper halves [one with only isopropyl alcohol and one comprising the test compound(s).] Filter paper halves were placed on opposing sides of experimental petri dishes and bed bugs were allowed to move freely within the dishes by removal of the plastic cup top. Movement was allowed to continue for 5 minutes before the number bed bugs beneath each filter paper tent was recorded.

[4] = system: bed bug (Cimex lectularius); test: as above; format: in vivo; conditions: statement in the description, test not named
bed bugs [5] = conditions: study performed in Africa; cited from earlier work
C. lectularius = conditions: population of C. lectularius isolated in Arkansas; cited from earlier work

| Molecule | Attractant Category (bed bugs [1]) | Att Act (attractant activity value) (bed bugs [1]) [%] | % Repellency [2] [%] | % Repellency [3] [%] | Repellency Category [3] | further results |
| --- | --- | --- | --- | --- | --- | --- |
| C/C=C/C(=O)OC [BBC039, methyl crotonate] | Moderate (Compounds or blends with an attractant activity value of 20-40% were categorized as moderate attractants) | 20 | – | – | – | – |
| ultrazur [BBC016] | – | – | 64 | 84 | Very Strong (compounds with a percent repellency value of 80-100% were categorized as very strong repellents) | – |
| N#C/C=C/c1ccccc1 [BBC029, cinnamyl nitrile] | – | – | 92 | 56 | Moderate (Compounds with a percent repellency value of 40-60% were categorized as moderate repellents) | Ind % Rep (percent repellency of the individual compound) [3]: 56% |
| CCC(=O)OCCC(C)C [BBC051, isoamyl propionate] | Mild (Compounds or blends with an attractant activity value of 10-20% were categorized as mild attractants) | 10 | – | – | – | – |
| CC(=O)/C=C/C=C(C)C [BBC014, methyl heptadienone] | – | – | 64 | 87 | Very Strong (compounds with a percent repellency value of 80-100% were categorized as very strong repellents) | – |
| CC1=C2CCC(C)CC2OC1=O (stereo not drawn) [BBC054, menthalactone] | – | – | 95 | – | – | – |
| C/C=C(\C)C=O [BBC062, trans-2-methyl-2-butenal] | – | – | – | – | – | Ind % Rep (percent repellency of the individual compound) [3]: 0% |
| methoxy cinnamic aldehyde [BBC046] | – | – | 92 | 23 | Mild (Compounds with a percent repellency value of 20-40% were categorized as mild repellents) | – |
| COc1ccccc1O [BBC011, guaiacol] | – | – | – | – | – | bed bug repellency, in words [4]: repel bed bugs |
| COc1cnccn1 [BBC047, 2-methoxypyrazine] | Moderate (Compounds or blends with an attractant activity value of 20-40% were categorized as moderate attractants) | 30 | – | – | – | – |
| CSC(C)=O [BBC060, methanethiol acetate] | Moderate (Compounds or blends with an attractant activity value of 20-40% were categorized as moderate attractants) | 20 | – | – | – | – |
| COC(Cc1ccccc1)OC [BBC012, phenylacetaldehyde dimethyl acetate] | – | – | – | 100 | Very Strong (compounds with a percent repellency value of 80-100% were categorized as very strong repellents) | – |
| Clc1ccc(C(c2ccc(Cl)cc2)C(Cl)(Cl)Cl)cc1 [DDT, dichlorodiphenyltrichloroethane] | – | – | – | – | – | bed bug activity level after treatment (bed bugs [5]): higher activity level; LD50 (C. lectularius): 100,000 ppm |
| COC(/C=C/c1ccccc1)OC [BBC013, cinnamic aldehyde dimethyl acetal] | – | – | – | 90 | Very Strong (compounds with a percent repellency value of 80-100% were categorized as very strong repellents) | – |
| CCCC(=O)CCC [BBC057, heptanone-4] | – | – | 38 | – | – | – |
| 2-methoxy-3(5or6) isopropylpyrazine [BBC006] | – | – | 100 | 100 | Very Strong (compounds with a percent repellency value of 80-100% were categorized as very strong repellents) | – |
| CCCCCCOC=O [BBC035, hexyl formate] | Moderate (Compounds or blends with an attractant activity value of 20-40% were categorized as moderate attractants) | 30 | – | – | – | – |
| O=CCCc1ccccc1 [BBC005, phenyl propyl aldehyde] | – | – | 74 | 100 | Very Strong (compounds with a percent repellency value of 80-100% were categorized as very strong repellents) | – |
| C=CCc1ccc(O)c(OC)c1 [BBC002, eugenol] | – | – | – | – | – | bed bug repellency, in words [4]: repel bed bugs |
| COc1nccnc1C [BBC067, 2-methoxy-3-methylpyrazine] | Mild (Compounds or blends with an attractant activity value of 10-20% were categorized as mild attractants) | 10 | – | – | – | – |
| CCCC1CCC(=O)O1 (stereo not drawn) [BBC021, gamma-heptalactone] | – | – | 91 | 71 | Strong (Compounds with a percent repellency value of 60-80% were categorized as strong repellents) | Ind % Rep (percent repellency of the individual compound) [3]: 71% |
| COC(=O)CCC(C)=O [BBC049, methyl levulinate] | Mild (Compounds or blends with an attractant activity value of 10-20% were categorized as mild attractants) | 10 | – | – | – | – |
| CCCC(C)=O [BBC065, 2-pentanone] | Moderate (Compounds or blends with an attractant activity value of 20-40% were categorized as moderate attractants) | 30 | – | – | – | – |
| CCCOC=O [BBC070, propyl formate] | Moderate (Compounds or blends with an attractant activity value of 20-40% were categorized as moderate attractants) | 30 | – | – | – | – |
| O=C1CCCC1 [BBC069, cyclopentanone] | Strong (Compounds or blends with an attractant activity value of 40-60% were categorized as strong attractants) | 50 | – | – | – | – |
